Patent US20090088462A1, “Pharmaceutical Composition for Enhancing Adiponectin Production” (Daiichi Sankyo Company, Limited, priority 2005, published 2009)
Counter-ions that a name gives are not always drawn.

Tested on: adiponectin
Assay: Comparative test for adiponectin production enhancing effect: plasma adiponectin concentration by radioimmunoassay
Type: in vivo
Settings: female db/db mice, one week oral; Compound A 0.3 mg/kg vs B 3 mg/kg (P<0.001) and vs C 30 mg/kg (P<0.01), Tukey's multiple comparison test
Description: Plasma glucose levels and plasma adiponectin concentrations were compared between each of the groups respectively. The plasma adiponectin concentration was measured using a radioimmunoassay kit (Mouse Adiponectin RIA Kit, Linco Research, Inc.). Plasma was diluted by 100 times using a buffer provided with the kit, and measurement was conducted using the diluted plasma (5 μL) (final dilution rate: 2000 times). The radioactivity was measured using a gamma counter, and adiponectin concentration was calculated from the measured radioactivity (measurement unit: μg/mL).

## COc1ccc2nc(COc3ccc(CC4SC(=O)NC4=O)cc3)n(C)c2c1 (stereo not shown) [Compound A, 5-[4-(6-Methoxy-1-methyl-1H-benzimidazol-2-ylmethoxy)benzyl]thiazolidine-2,4-dione hydrochloride]
  plasma adiponectin concentration compared with Compound B and Compound C administration groups: significant increasing effect
